Assay results as given in publication doi:10.1101/2024.09.26.610356v2 (biorxiv, 2024).

Experiments:
[1] = molecular target: T1, human triosephosphate isomerase (TPI) (Homo sapiens, UniProt P60174); test: Michaelis-Menten kinetics, GAPDH-coupled assay; assay type: biochemical
[2] = molecular target: T1, human triosephosphate isomerase (TPI); test: GAPDH-coupled kinetic assay, dose response; assay type: biochemical
[3] = molecular target: T1, human triosephosphate isomerase (TPI); test: label-free MST; assay type: binding
[4] = molecular target: T2, human glucose-6-phosphate isomerase (GPI) (Homo sapiens, UniProt P06744); test: Michaelis-Menten kinetics, G6PDH-coupled assay; assay type: biochemical
[5] = molecular target: T2, human glucose-6-phosphate isomerase (GPI); test: G6PDH-coupled kinetic assay, dose response; assay type: biochemical
[6] = molecular target: T2, human glucose-6-phosphate isomerase (GPI); test: label-free MST; assay type: binding

T1 sequence (P60174 whole entry): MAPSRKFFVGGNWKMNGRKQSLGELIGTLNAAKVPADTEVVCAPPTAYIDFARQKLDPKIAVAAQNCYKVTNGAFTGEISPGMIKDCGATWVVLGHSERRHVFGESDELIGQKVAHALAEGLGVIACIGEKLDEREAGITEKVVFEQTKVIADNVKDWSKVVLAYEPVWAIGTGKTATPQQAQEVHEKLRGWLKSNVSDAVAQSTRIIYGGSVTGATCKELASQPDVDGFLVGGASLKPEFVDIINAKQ

## O=P(O)(O)OC[C@H](O)CO [Glycerol-3-phosphate]
[1]
  Ki: 2.04 mM
[2]
  EC50: 8.65 ± 1.49 mM
[3]
  Kd: 6.79 ± 2.3 mM

## O=P(O)(O)OC(CO)CO [Glycerol-2-phosphate]
[1]
  Ki: 1.89 mM
[2]
  EC50: 7.31 ± 1.22 mM
[3]
  Kd: 5.31 ± 1.07 mM

## Nc1ncnc2c1ncn2[C@@H]1O[C@H](COP(=O)(O)OP(=O)(O)O)[C@@H](O)[C@H]1O [ADP]
[4]
  Ki: 3.97 mM
[5]
  EC50: 8.66 ± 1.37 mM
[6]
  Kd: 19.3 ± 0.96 mM

## O=C(O)C(=O)O [Oxalate]
[1]
  Ki: 27.3 mM
[2]
  EC50: 12.6 ± 0.76 mM
[3]
  Kd: 19.1 ± 1.38 mM

## NCCc1c[nH]cn1 [Histamine]
[4]
  Ki: 9.25 mM
[5]
  EC50: 7.35 ± 1.26 mM
[6]
  Kd: 13.1 ± 0.64 mM

## CC(C(=O)O)C(=O)O [Methylmalonate]
[1]
  Ki: 17.3 mM
[2]
  EC50: 16.3 ± 2.54 mM
[3]
  Kd: 12.2 ± 1.9 mM

## C=C(OP(=O)(O)O)C(=O)O [Phosphoenolpyruvate]
[4]
  Ki: 5.61 mM
[5]
  EC50: 11.8 ± 1.33 mM
[6]
  Kd: 11.1 ± 1.44 mM

## O=C(CO)COP(=O)(O)O [Dihydroxyacetone phosphate]
[4]
  Ki: 4.47 mM
[5]
  EC50: 8.24 ± 1.94 mM
[6]
  Kd: 17.5 ± 0.98 mM

## NO [Hydroxylamine]
[4]
  Ki: 21.1 mM
[5]
  EC50: 14.6 ± 1.99 mM

## C/C(=C/C(=O)O)C(=O)O [Citraconate]
[4]
  Ki: 2.17 mM
[5]
  EC50: 8.05 ± 2.34 mM
[6]
  Kd: 20.1 ± 2.03 mM

## O=C(O)/C=C\C(=O)O [Maleate]
[4]
  Ki: 7.15 mM
[5]
  EC50: 9.48 ± 2.85 mM
[6]
  Kd: 14.4 ± 2.07 mM
